Reference: ChEMBL document CHEMBL2380205, “Discovery of a new class of natural product-inspired quinazolinone hybrid as potent antileishmanial agents” (J Med Chem, 2013)

Experiments:
[1] = system: Leishmania donovani; experiment: Antileishmanial activity against amastigotes of Leishmania donovani MHOM/IN/60/Dd8 infected in golden hamster assessed as amastigote count at 40 mg/kg/day, ip administered for 5 days measured on day 7 of post last dose by Giemsa staining; format: functional, organism-based
[2] = system: J774.A1; experiment: (§1) Selectivity index, ratio of CC50 for mouse J774A1 cells to IC50 for amastigotes of Leishmania donovani MHOM/IN/60/Dd8 infected in mouse J-774A.1 cells; format: functional
[3] = system: Leishmania donovani; experiment: Antileishmanial activity against amastigotes of Leishmania donovani MHOM/IN/60/Dd8 infected in mouse J-774A.1 cells after 72 hrs by luciferase reporter gene assay; format: functional, organism-based; conditions: MHOM/IN/60/Dd8, J774.A1, 72 h
[4] = system: Leishmania donovani; experiment: Antileishmanial activity against promastigotes of Leishmania donovani MHOM/IN/60/Dd8 after 72 hrs by luciferase reporter gene assay; format: functional, organism-based; conditions: MHOM/IN/60/Dd8, 72 h
[5] = Cytotoxicity against mouse J774A1 cells after 72 hrs by MTT assay; format: cell-based, J774.A1
[6] = as §1; format: functional, J774.A1
[7] = Cytotoxicity against african green monkey Vero cells after 72 hrs by MTT assay; format: cell-based; conditions: chlorocebus sabaeus
[8] = system: Leishmania donovani; experiment: Antileishmanial activity against amastigotes of Leishmania donovani MHOM/IN/60/Dd8 infected in golden hamster assessed as amastigote count at 50 mg/kg/day, ip administered for 5 days measured on day 7 of post last dose by Giemsa staining; format: functional; conditions: MHOM/IN/60/Dd8, ip, route intraperitoneal
[9] = Lipophilicity, log P of the compound; format: physicochemical; conditions: octanol/water

Row | Compound | IC50 [3] | IC50 [4] | logP [9] | inhibition [1] | Ratio CC50/IC50 [2] | CC50 at 72 h [5] | Ratio CC50/IC50 [6] | CC50 at 72 h [7] | inhibition in vivo at 50 mg/kg/day [8]
1 | Sodium stibogluconate | – | – | – | 86.9% | > 8.57 | – | – | – | –
2 | Nc1nc(-c2ccc(Cl)cc2)cc(-c2ccc(C3NC(=O)c4ccccc4N3)cc2)n1 (stereo not given) | 1.89 µM | 3.07 µM | 4.49 | – | – | 82.2 µM | 43.46 | 323 µM | 35.8%
3 | COc1ccc(CNc2nc(NCc3ccc(OC)cc3)nc(Nc3ccc(C4(C)NC(=O)c5ccccc5N4)cc3)n2)cc1 (stereo not given) | > 40 µM | > 40 µM | – | – | – | – | – | – | –
4 | CC1(c2ccc(Nc3nc(N4CCCc5ccccc54)nc(N4CCCc5ccccc54)n3)cc2)NC(=O)c2ccccc2N1 (stereo not given) | > 40 µM | 33.2 µM | – | – | – | – | – | – | –
5 | Nc1nc(-c2ccccc2)cc(-c2ccc(C3NC(=O)c4ccccc4N3)cc2)n1 (stereo not given) | 17 µM | 4.04 µM | – | – | – | – | – | – | –
6 | CC1(c2ccc(Nc3nc(N4CCC(O)CC4)nc(N4CCC(O)CC4)n3)cc2)NC(=O)c2ccccc2N1 (stereo not given) | > 40 µM | > 40 µM | – | – | – | – | – | – | –
7 | COc1cccc(-c2cc(-c3ccc(C4NC(=O)c5ccccc5N4)cc3)nc(N)n2)c1OC (stereo not given) | 4.43 µM | 4.23 µM | – | – | – | > 400 µM | >90.29 | > 400 µM | –
8 | CC1(c2ccc(Nc3nc(N4CCOCC4)nc(N4CCOCC4)n3)cc2)NC(=O)c2ccccc2N1 (stereo not given) | > 40 µM | > 40 µM | – | – | – | – | – | – | –
9 | CC(C)c1ccc(C(C(=O)NC2CCCCC2)N(C(=O)c2cccc(Cl)c2)c2ccc(C3(C)NC(=O)c4ccccc4N3)cc2)cc1 (stereo not given) | 4.74 µM | > 40 µM | 8.53 | – | – | > 400 µM | >84.38 | > 400 µM | 48%
10 | COc1ccc(-c2cc(-c3ccc(C4NC(=O)c5ccccc5N4)cc3)nc(N)n2)cc1 (stereo not given) | 10.1 µM | 5.79 µM | – | – | – | 178 µM | 17.64 | 124 µM | –
11 | CC1(c2ccc(Nc3nc(NCc4ccco4)nc(NCc4ccco4)n3)cc2)NC(=O)c2ccccc2N1 (stereo not given) | > 20 µM | 13.2 µM | – | – | – | – | – | – | –
12 | CC1(c2ccc(Nc3nc(Nc4ccccc4)nc(Nc4ccccc4)n3)cc2)NC(=O)c2ccccc2N1 (stereo not given) | – | 3.02 µM | – | – | – | – | – | – | –
13 | CC1(c2ccc(Nc3nc(NCc4ccccc4)nc(NCc4ccccc4)n3)cc2)NC(=O)c2ccccc2N1 (stereo not given) | 6.72 µM | 6.38 µM | 6.49 | – | – | > 400 µM | >59.52 | 359 µM | 44.8%
14 | Nc1nc(-c2ccc(C3NC(=O)c4ccccc4N3)cc2)cc(-c2ccccc2Cl)n1 (stereo not given) | 15.3 µM | 9 µM | – | – | – | – | – | – | –
15 | COc1ccc(C(C(=O)NC2CCCCC2)N(C(=O)c2cccc(Cl)c2)c2ccc(C3(C)NC(=O)c4ccccc4N3)cc2)cc1 (stereo not given) | 15.5 µM | > 40 µM | – | – | – | – | – | – | –
16 | Nc1nc(-c2ccc(Br)cc2)cc(-c2ccc(C3NC(=O)c4ccccc4N3)cc2)n1 (stereo not given) | 7.02 µM | 2.82 µM | – | – | – | 125 µM | 17.82 | > 400 µM | –
17 | CCCCCNc1nc(NCCCCC)nc(Nc2ccc(C3(C)NC(=O)c4ccccc4N3)cc2)n1 (stereo not given) | 2.42 µM | 7.46 µM | 7.57 | – | – | > 400 µM | >165.29 | > 400 µM | 43%
18 | COc1cc(-c2cc(-c3ccc(C4NC(=O)c5ccccc5N4)cc3)nc(N)n2)cc(OC)c1OC (stereo not given) | 3.83 µM | 3.44 µM | – | – | – | 103 µM | 26.97 | 85.9 µM | –
19 | CC1(c2ccc(Nc3nc(N4CCCCCC4)nc(N4CCCCCC4)n3)cc2)NC(=O)c2ccccc2N1 (stereo not given) | 2.59 µM | 6.02 µM | – | – | – | 237 µM | 91.64 | > 400 µM | 37.4%
20 | CC1(c2ccc(N(C(=O)c3cccc(Cl)c3)C(C(=O)NC3CCCCC3)c3ccc(Cl)cc3)cc2)NC(=O)c2ccccc2N1 (stereo not given) | 15.8 µM | 39.5 µM | – | – | – | – | – | – | –
21 | CC1(c2ccc(Nc3nc(NCCCN4CCOCC4)nc(NCCCN4CCOCC4)n3)cc2)NC(=O)c2ccccc2N1 (stereo not given) | > 40 µM | > 40 µM | – | – | – | – | – | – | –
22 | Nc1nc(-c2ccc(F)cc2)cc(-c2ccc(C3NC(=O)c4ccccc4N3)cc2)n1 (stereo not given) | 24.7 µM | 9.83 µM | – | – | – | – | – | – | –

The next lines start with results.

Row | IC50 [3] | IC50 [4] | logP [9] | Compound | inhibition [1] | Ratio CC50/IC50 [2] | CC50 at 72 h [5] | Ratio CC50/IC50 [6] | CC50 at 72 h [7] | inhibition in vivo at 50 mg/kg/day [8]
23 | > 20 µM | 3.68 µM | – | CC1(c2ccc(NC(c3ccc(F)cc3)c3nnnn3C(C)(C)C)cc2)NC(=O)c2ccccc2N1 (stereo not given) | – | – | – | – | – | –
24 | 15.6 µM | > 40 µM | – | CC(C)(C)NC(=O)C(c1ccc(Br)cc1)N(C(=O)c1cccc(Cl)c1)c1ccc(C2(C)NC(=O)c3ccccc3N2)cc1 (stereo not given) | – | – | – | – | – | –
25 | 4.8 µM | 7.69 µM | – | CCCCNc1nc(NCCCC)nc(Nc2ccc(C3(C)NC(=O)c4ccccc4N3)cc2)n1 (stereo not given) | – | – | 40.1 µM | 8.35 | 142 µM | –
26 | 13.1 µM | 3.05 µM | – | COc1ccc(C(Nc2ccc(C3(C)NC(=O)c4ccccc4N3)cc2)c2nnnn2C(C)(C)C)cc1 (stereo not given) | – | – | > 400 µM | >30.65 | > 400 µM | –
27 | 9.07 µM | 7 µM | – | CC(C)c1ccc(C(Nc2ccc(C3(C)NC(=O)c4ccccc4N3)cc2)c2nnnn2C2CCCCC2)cc1 (stereo not given) | – | – | > 400 µM | >44.1 | > 400 µM | –
28 | 8.46 µM | 24.1 µM | – | CC1(c2ccc(NC(c3ccc(Br)cc3)c3nnnn3C(C)(C)C)cc2)NC(=O)c2ccccc2N1 (stereo not given) | – | – | 400 µM | 47.28 | > 400 µM | –
29 | 7.76 µM | 4.02 µM | 6.03 | CC(C)c1ccc(C(Nc2ccc(C3(C)NC(=O)c4ccccc4N3)cc2)c2nnnn2C(C)(C)C)cc1 (stereo not given) | – | – | > 400 µM | >51.54 | > 400 µM | 54%
30 | > 40 µM | 5.59 µM | – | CCCCNC(c1ccc(C2NC(=O)c3ccccc3N2)cc1)c1nnnn1C(C)(C)C (stereo not given) | – | – | – | – | – | –
31 | > 40 µM | 1.91 µM | – | CCCCCNC(c1ccc(C2NC(=O)c3ccccc3N2)cc1)c1nnnn1C(C)(C)C (stereo not given) | – | – | – | – | – | –
32 | 15.5 µM | 2.56 µM | – | COc1ccc(C(Nc2ccc(C3(C)NC(=O)c4ccccc4N3)cc2)c2nnnn2C(C)(C)C)c2ccccc12 (stereo not given) | – | – | – | – | – | –
33 | 16.8 µM | > 40 µM | – | COc1ccc(C(Nc2ccc(C3(C)NC(=O)c4ccccc4N3)cc2)c2nnnn2C2CCCCC2)cc1 (stereo not given) | – | – | – | – | – | –
34 | 9.42 µM | > 40 µM | – | CC1(c2ccc(NC(c3ccc(Br)cc3)c3nnnn3C3CCCCC3)cc2)NC(=O)c2ccccc2N1 (stereo not given) | – | – | > 400 µM | >42.46 | > 400 µM | –
35 | 8.87 µM | 8.86 µM | – | CCCNc1nc(NCCC)nc(Nc2ccc(C3(C)NC(=O)c4ccccc4N3)cc2)n1 (stereo not given) | – | – | > 400 µM | >45.09 | > 400 µM | –
36 | 12 µM | > 40 µM | – | CC(C)c1ccc(C(C(=O)NC(C)(C)C)N(C(=O)c2cccc(Cl)c2)c2ccc(C3(C)NC(=O)c4ccccc4N3)cc2)cc1 (stereo not given) | – | – | > 400 µM | >33.25 | > 400 µM | –
37 | > 40 µM | 1.27 µM | – | CC(C)(C)n1nnnc1C(c1ccc(C2NC(=O)c3ccccc3N2)cc1)N1CCc2ccccc2C1 (stereo not given) | – | – | – | – | – | –
38 | 7.06 µM | 1.21 µM | – | CC1(c2ccc(NC(c3ccc(Cl)cc3)c3nnnn3C(C)(C)C)cc2)NC(=O)c2ccccc2N1 (stereo not given) | – | – | > 400 µM | >56.65 | > 400 µM | –
39 | > 40 µM | > 40 µM | – | CC1(c2ccc(NC(c3ccncc3)c3nnnn3C(C)(C)C)cc2)NC(=O)c2ccccc2N1 (stereo not given) | – | – | – | – | – | –
40 | 29.6 µM | > 40 µM | – | COc1ccc(C(C(=O)NC(C)(C)C)N(C(=O)c2cccc(Cl)c2)c2ccc(C3(C)NC(=O)c4ccccc4N3)cc2)cc1 (stereo not given) | – | – | – | – | – | –
41 | > 20 µM | 3.92 µM | – | CC1(c2ccc(NC(c3cccc4ccccc34)c3nnnn3C(C)(C)C)cc2)NC(=O)c2ccccc2N1 (stereo not given) | – | – | – | – | – | –
42 | 5.48 µM | 1.02 µM | – | CC(C)(C)Nc1nc(Nc2ccc(C3(C)NC(=O)c4ccccc4N3)cc2)nc(NC(C)(C)C)n1 (stereo not given) | – | – | 60.7 µM | 11.07 | 159 µM | –
43 | > 40 µM | 3.64 µM | – | CC(C)(C)n1nnnc1C(NCc1ccccc1)c1ccc(C2NC(=O)c3ccccc3N2)cc1 (stereo not given) | – | – | – | – | – | –
44 | > 40 µM | > 40 µM | – | COc1cc(C(Nc2ccc(C3(C)NC(=O)c4ccccc4N3)cc2)c2nnnn2C(C)(C)C)cc(OC)c1OC (stereo not given) | – | – | – | – | – | –
45 | 13.5 µM | > 40 µM | – | CC(C)(C)NC(=O)C(c1ccc(Cl)cc1)N(C(=O)c1cccc(Cl)c1)c1ccc(C2(C)NC(=O)c3ccccc3N2)cc1 (stereo not given) | – | – | > 400 µM | >29.67 | > 400 µM | –
46 | 11.3 µM | 39.4 µM | – | CC1(c2ccc(NC(c3ccc(Cl)cc3)c3nnnn3C3CCCCC3)cc2)NC(=O)c2ccccc2N1 (stereo not given) | – | – | > 400 µM | >35.3 | > 400 µM | –
